Data: patent EP0211863B1, “VITAMIN D DERIVATIVES AND METHODS FOR PREPARING SAME” (WISCONSIN ALUMNI RESEARCH FOUNDATION, priority 1985, dated 1986)

What was measured:
[1] = Bone calcium mobilization activity (serum calcium by atomic absorption); format: in vivo; details: male weanling rats on low calcium, vitamin D deficient diet for 3 weeks; 650 pmole intrajugularly, 7 h prior to sacrifice; ± standard deviation from the mean
Experimental: Bone calcium mobilization activity of 1α,25-(OH)₂-26-homo-D₃ compounds
Male weanling rats were purchased from Holtzman Co., Madison, Wis. and fed ad libitum a low calcium, vitamin D deficient diet as described by Suda et al (J. Nutrition 100: 1049, 1970) and water for 3 weeks. The rats were then divided into 4 groups of 6 each and were intrajugularly given respectively 650 pmole of either 1α,25-(OH)₂-26-homo-D₃, 1α,25-(OH)₂-(22E)Δ²²-26-homo-D₃ or 1α,25-(OH)₂D₃ dissolved in 0.05 ml of 95% ethanol 7 h prior to sacrifice. […] The rats in the control group were given 0.05 ml of ethanol vehicle in the same manner. They were killed by decapitation, the blood was collected and centrifuged to obtain serum. Serum calcium concentration was determined with an atomic absorption spectrophotometer (Perkin-Elmer Model 214) in presence of 0.1% lanthanum chloride.

[2] = system: human promyelocytic leukemia cells (HL-60 cells); assay: Phagocytosis assay for differentiation activity; format: cell-based; details: four days (96 hr) incubation
Experimental: (§1) The human promyelocytic leukemia cell line (HL-60) was maintained in suspension culture in RPMl 1640 medium (Gibco, Grand Island, NY) supplemented with 10% (v/v) heat inactivated fetal calf serum, 100 ug/ml penicillin, 100 µg/ml streptomycin and 0.25 µg/ml fungizone. Cells were cultured in a humidified atmosphere with 5% CO₂. Cell viability was assessed by standard assays, e.g. trypan blue exclusion. Morphological evaluations were done on Wright stained slide preparations.
(§2) Cells were seeded at 1.5 - 2 x 10⁵ cells/ml in 10 ml of medium in tissue culture dishes. […] Control cultures were treated with the same concentration of ethanol. After four days (96 hr) of incubation with test compounds, the cells were harvested from these culture dishes and cell number and viability were determined. […] After incubation of this mixture for 1 hr at 37°C, the number of phagocytic cells was counted (as determined by the trypan blue stained yeast appearing intracellularly) and expressed as a percent of the total viable cells present. […] After standing in a water bath for 30 min, the differentiated cells (i.e. the cells showing formazan blue deposits indicative of NBT reduction) were counted with a hemocytometer and expressed as the percent of total viable cells present.

[3] = system: human promyelocytic leukemia cells (HL-60 cells); assay: NBT-reduction assay for differentiation; format: cell-based; details: four days (96 hr) incubation, read-out: concentration to achieve 60% differentiation
Experimental: as §1, §2

Row | SMILES | Serum Calcium Concentration [1] | EC50 ([2]; Homo sapiens, HL-60, phagocytosis assay, read-out: concentration to achieve 50% differentiation) [nM] | differentiation (% phagocytic cells) ([2]; concentration of 10⁻⁸ molar) | EC60 [3] [nM]
1 | C=C1/C(=C\C=C2/CCC[C@]3(C)[C@@H]([C@H](C)CCCC(C)(O)CC)CC[C@@H]23)C[C@@H](O)C[C@@H]1O (stereo partly drawn) [1α,25-(OH)₂-26-homo-D₃, (25ξ)-1α,25-Dihydroxy-26-homovitamin D₃] | 4.6 ± 0.2 ^b^) mg/100 ml | – | – | –
2 | C=C1/C(=C\C=C2/CCC[C@]3(C)[C@@H]([C@H](C)/C=C/CC(C)(O)CC)CC[C@@H]23)C[C@@H](O)C[C@@H]1O (stereo partly drawn) [1α,25-(OH)₂-(22E)Δ²²-26-homo-D₃, (22E,25ξ)-1α,25-Dihydroxy-22-dehydro-26-homovitamin D₃] | 4.6 ± 0.3 ^b^) mg/100 ml | – | – | –
3 | C=C1/C(=C\C=C2/CCC[C@]3(C)[C@@H]([C@H](C)CCCC(C)(C)O)CC[C@@H]23)C[C@@H](O)C[C@@H]1O [1α,25-(OH)₂D₃, 1α,25-dihydroxyvitamin D₃] | 4.5 ± 0.2 ^b^) mg/100 ml | ~10 | about 47% | 35
